From US20210293825A1, “METHODS FOR PRECISION THERAPEUTIC TARGETING OF HUMAN CANCER CELL MOTILITY AND KITS THEREOF” (UNITED STATES GOVERNMENT AS REPRESENTED BY THE DEPARTMENT …, priority 2018, published 2021)

Experiments:
[1] = target: T1, phosphorylation of HSP90β (Homo sapiens, UniProt P08238+Q16543); assay: HSP90β/CDC37 heterocomplex in vitro kinase assay with SGK3 and MAP3K6; format: biochemical
T1 construct: MAP3K6: Abnova SGK3: #PV3859; MAP3K6: #P5592; host or cells: E. coli for HSP90β and CDC37
Experimental: HEK293T cells were transfected with 1 of 420 different protein kinases, treated with 10 μM KBU2046 (N=5 replicates) or vehicle control (N=5) for three days, and LUMIER assays performed. The N=17 kinases that gave significant findings (Student's t-test <0.05) in the same direction in each of two separate experiments are depicted. Each separate treatment and kinase condition in each of two separate experiments was conducted in replicates of N=5. […] FIGS. 6c and 6d show the results of the wound healing assay. PC3 cells were transfected with siRNA targeting RAF1 (si-Raf1) or non-targeting siRNA (si-control), treated with KBU2046 or vehicle as above, and RAF1 protein measured by Western blot (c) and effects upon wound healing measured (d). […] Purified recombinant HSP90β, CDC37, and RAF1 were combined with KBU2046, as indicated, incubated in an in vitro kinase assay for the indicated times, and Western blot for RAF1-Ser^338 phosphorylation performed. FIGS. 6f and 6g show the effect on HSP90β/CDC37 heterocomplex formation and function in vitro. Purified recombinant HSP90β, CDC37, RAF1, SGK3 or MAP3K6 were combined and treated with KBU2046 or vehicle control, as indicated, incubated in an in vitro kinase assay for the indicated times, and Western blot performed, as denoted. Experiments were repeated at separate times at least once, with similar results. […]

[2] = test system: human prostate cells; assay: Three day cell growth inhibition, human prostate cells; format: cell-based; details: 3 days growth inhibition
Text: FIG. 1a is a schematic flow of probe synthesis and development strategy. […] Values are mean±SEM of a single experiment in replicates of N=4, with similar findings in multiple separate experiments (also N=4). […] Values are mean±SEM of a single experiment in replicates of N=24, with similar findings in a separate experiment (also N=24). *Denotes Student's t test P value <0.05, compared to controls. […] Values are mean±SEM from N>2 separate experiments, each in replicates of N=3. […] Values are the mean±SD number of total, CFU-GM, CFU-GEMM or BFU-E colonies at 14 days after treatment with KBU2046, from a single experiment in replicates of N=2. […] Values are the mean±SD of a single experiment, with similar results seen in a separate experiment, both in replicates of N=2.
Assays were in replicates of N=3, and were repeated.

[3] = test system: 442 kinases, including 400 distinct parental kinases plus mutants; assay: KINOMEscan assay (Ambit Biosciences); format: binding; details: tested at 10 μM
Text: Kinase assay system #1. The KINOMEscan™ assay (Ambit Biosciences). This assay evaluates 442 kinases, including 400 distinct parental kinases plus mutants known to alter activity or responsiveness. It does so in the context of an assay that measures the ability of putative inhibitors to inhibit binding of bacterial purified kinase to immobilized phospho-acceptor protein substrate. This approach has been successfully to identify kinase interactions of several small molecule kinase inhibitors (Fabian, M. A. et al., Nat Biotechnol 23, 329-36 (2005); and Karaman, M. W. et al., Nat Biotechnol 26, 127-32 (2008)). KBU2046 was tested at 10 μM. […] There were two initial false positives (for a false positive rate of 0.4%), that were subsequently found to be negative in a dedicated follow up analysis. Specific and important negative findings include MKK4, p38 MAPK (α, β, γ and δ isoforms) and RAF1. Conclusions: there was no evidence that KBU2046 inhibits kinase function by competing for phospho-acceptor binding.

[4] = test system: PC3-M cells; assay: Three day MTT cell growth inhibition assay, PC3-M cells; format: cell-based, human
[5] = test system: human PCa PC3-M cell orthotopic implants; assay: Murine orthotopic implantation model of human PCa (lung metastasis); format: in vivo, athymic mice; details: mice treated as in FIG. 2a
Experimental: Cohorts of N=12 athymic mice bearing human PCa PC3-M cell orthotopic implants (a), or of N=5 non-tumor bearing athymic mice (b), were treated with KBU2046 incorporated into chow, and resultant lung metastasis (a) or plasma KBU2046 concentration (b) measured. Values are the mean±SEM. The relationship between dose and metastasis was evaluated by two-sided ANOVA (a). FIG. 2c a comprehensive characterization of KBU2046 pharmacokinetics. CD1 mice were dosed with 100 mg KBU2046/kg via oral gavage or intravenous injection (iv), and blood collected at the indicated time points (data from mice dosed at 25 mg/kg are in FIG. 12, and corroborate 100 mg/kg findings). […] The dotted horizontal line denotes a concentration of 24 nM, which was the concentration of KBU2046 measured in the blood of mice whose metastasis were suppressed by 92% (a-b). […]
Prostate cancer: orthotopic implantation. Orthotopic implantation of human GFP-PC3-M PCa cells into 6-8 week male Balb/c athymic mice (Charles River Laboratories) and quantification of distant metastasis was performed as described (Pavese, J. et al., J Vis Exp, e50873 (2013)). […] Metastasis were scored in a blinded fashion. Specifically, animals were assigned an ID number, resultant histologic slides contained a separate pathological ID number, slides were scored in a random fashion, after which the two numbers were linked up.

T1 sequence (P08238 2-724): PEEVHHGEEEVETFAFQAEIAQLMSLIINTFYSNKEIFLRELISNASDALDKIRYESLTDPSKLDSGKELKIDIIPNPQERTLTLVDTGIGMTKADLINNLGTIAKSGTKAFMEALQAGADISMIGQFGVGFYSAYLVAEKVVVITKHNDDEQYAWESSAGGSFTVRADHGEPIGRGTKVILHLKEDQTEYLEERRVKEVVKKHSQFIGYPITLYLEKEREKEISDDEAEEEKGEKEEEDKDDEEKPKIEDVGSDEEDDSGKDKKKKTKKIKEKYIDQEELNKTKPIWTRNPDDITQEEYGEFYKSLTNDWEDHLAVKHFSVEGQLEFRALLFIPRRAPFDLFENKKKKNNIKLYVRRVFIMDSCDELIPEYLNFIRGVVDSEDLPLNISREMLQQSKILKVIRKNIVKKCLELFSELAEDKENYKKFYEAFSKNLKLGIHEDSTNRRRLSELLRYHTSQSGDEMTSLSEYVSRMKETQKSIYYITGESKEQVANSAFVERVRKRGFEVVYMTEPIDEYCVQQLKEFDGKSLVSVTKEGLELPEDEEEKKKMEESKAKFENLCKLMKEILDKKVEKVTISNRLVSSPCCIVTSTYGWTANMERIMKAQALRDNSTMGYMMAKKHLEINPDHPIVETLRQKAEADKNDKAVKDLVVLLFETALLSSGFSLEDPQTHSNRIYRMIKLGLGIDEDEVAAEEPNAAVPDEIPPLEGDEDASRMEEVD
T1 sequence (Q16543 whole entry): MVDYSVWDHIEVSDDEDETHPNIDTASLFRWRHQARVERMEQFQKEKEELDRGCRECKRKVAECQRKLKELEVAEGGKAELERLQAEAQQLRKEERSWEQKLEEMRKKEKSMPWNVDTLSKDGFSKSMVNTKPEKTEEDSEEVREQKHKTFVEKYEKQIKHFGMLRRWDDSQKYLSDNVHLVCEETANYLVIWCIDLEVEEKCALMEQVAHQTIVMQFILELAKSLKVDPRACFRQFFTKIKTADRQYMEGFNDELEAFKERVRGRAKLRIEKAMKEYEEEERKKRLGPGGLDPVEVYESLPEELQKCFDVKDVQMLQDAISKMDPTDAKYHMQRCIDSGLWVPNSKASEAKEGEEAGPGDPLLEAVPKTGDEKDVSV

O=C1c2ccccc2OCC1c1ccc(F)cc1 (racemic) [KBU2046, (±)-3(4-fluorophenyl)chroman-4-one]
SGK3-mediated phosphorylation of HSP90β ([1]; MAP3K6 added): also decreases in the presence of KBU2046 | SGK3-mediated phosphorylation of HSP90β ([1]; SGK3 present): phosphorylation was further increased | toxicity to human prostate cells [2]: not toxic | inhibition of kinase binding to immobilized phospho-acceptor substrate [3]: completely negative | cell growth inhibition [4]: no growth inhibitory effects | primary tumor growth (tumor weight) [5]: does not inhibit primary tumor cell growth
